# According to patent publication US8778957B2, “CGRP receptor antagonists” (Merck Sharp & Dohme Corp., priority 2009, dated 2014):
# Target: recombinant human CL receptor/RAMP1 (Homo sapiens (Human), UniProt O60894+Q16602)
# Test: Recombinant receptor binding assay (125I-hCGRP)
# Settings: membranes of HEK 293 cells expressing human CL receptor/RAMP1, 10 pM 125I-hCGRP
# Protocol: RECOMBINANT RECEPTOR: Human CL receptor (Genbank accession number L76380) was subcloned into the expression vector pIREShyg2 (BD Biosciences Clontech) as a 5′NheI and 3′ PmeI fragment. Human RAMP 1 (Genbank accession number AJ001014) was subcloned into the expression vector pIRESpuro2 (BD Biosciences Clontech) as a 5′NheI and 3′NotI fragment. HEK 293 cells (human embryonic kidney cells; ATCC #CRL-1573) were cultured in DMEM with 4.5 g/L glucose, 1 mM sodium pyruvate and 2 mM glutamine supplemented with 10% fetal bovine serum (FBS), 100 units/mL penicillin and 100 μg/mL streptomycin, and maintained at 37° C. and 95% humidity. Cells were subcultured by treatment with 0.25% trypsin with 0.1% EDTA in HBSS. Stable cell line generation was accomplished by co-transfecting 10 μg of DNA with 30 μg Lipofectamine 2000 (Invitrogen) in 75 cm^2 flasks. CL receptor and RAMP1 expression constructs were co-transfected in equal amounts. Twenty-four hours after transfection the cells were diluted and selective medium (growth medium+300 μg/mL hygromycin and 1 μg/mL puromycin) was added the following day. A clonal cell line was generated by single cell deposition utilizing a FACS Vantage SE (Becton Dickinson). Growth medium was adjusted to 150 μg/mL hygromycin and 0.5 μg/mL puromycin for cell propagation.
# RECOMBINANT RECEPTOR BINDING ASSAY: Cells expressing recombinant human CL receptor/RAMP1 were washed with PBS and harvested in harvest buffer containing 50 mM HEPES, 1 mM EDTA and Complete protease inhibitors (Roche). The cell suspension was disrupted with a laboratory homogenizer and centrifuged at 48,000 g to isolate membranes. The pellets were resuspended in harvest buffer plus 250 mM sucrose and stored at −70° C. For binding assays, 20 μg of membranes were incubated in 1 ml binding buffer (10 mM HEPES, pH 7.4, 5 mM MgCl2, and 0.2% BSA) for 3 hours at room temperature containing 10 pM ^125I-hCGRP (GE Healthcare) and antagonist. The assay was terminated by filtration through 96-well GFB glass fiber filter plates (PerkinElmer) that had been blocked with 0.05% polyethyleneimine. The filters were washed 3 times with ice-cold assay buffer (10 mM HEPES, pH 7.4 and 5 mM MgCl2). Scintillation fluid was added and the plates were counted on a Topeount (Packard). Non-specific binding was determined and the data analysis was carried out with the apparent dissociation constant (Ki) determined by using a non-linear least squares fitting the bound CPM data to the equation below:
# [formula] Where Y is observed CPM bound, Ymax is total bound counts, Ymin is non specific bound counts, (Ymax−Ymin) is specific bound counts, % Imax is the maximum percent inhibition, % I min is the minimum percent inhibition, radiolabel is the probe, and the Kd is the apparent dissociation constant for the radioligand for the receptor as determined by Hot saturation experiments.
# Chain of recombinant human CL receptor/RAMP1 (Q16602 23-461): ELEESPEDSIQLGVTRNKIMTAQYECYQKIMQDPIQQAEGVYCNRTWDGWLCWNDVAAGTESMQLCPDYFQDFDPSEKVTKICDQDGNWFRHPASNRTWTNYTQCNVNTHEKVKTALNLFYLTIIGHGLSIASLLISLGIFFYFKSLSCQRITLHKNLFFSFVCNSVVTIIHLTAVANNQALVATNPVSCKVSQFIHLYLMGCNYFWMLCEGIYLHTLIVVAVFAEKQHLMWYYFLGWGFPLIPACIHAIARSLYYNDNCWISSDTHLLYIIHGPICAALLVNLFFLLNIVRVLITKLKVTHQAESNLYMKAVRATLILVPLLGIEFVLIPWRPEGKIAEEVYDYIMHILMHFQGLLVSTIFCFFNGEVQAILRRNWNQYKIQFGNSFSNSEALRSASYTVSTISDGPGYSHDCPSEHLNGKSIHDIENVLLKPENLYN
# Chain of recombinant human CL receptor/RAMP1 (O60894 27-148): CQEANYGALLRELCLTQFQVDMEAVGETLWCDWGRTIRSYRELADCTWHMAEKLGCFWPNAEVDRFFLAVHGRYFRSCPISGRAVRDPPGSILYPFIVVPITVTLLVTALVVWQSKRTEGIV
row,Compound,Ki [nM]
1,"CN1C(=O)NC(=O)C12Cc1cc3ccc(CN4CCC(Cc5ccccc5)CC4)nc3cc1C2 (racemic) [Example 7, (±)-2-[(4-Benzylpiperidin-1-yl)methyl]-3′-methyl-6,8-dihydro-2′H,5′H-spiro[cyclopenta[g]quinoline-7,4′-imidazolidine]-2′,5′-dione]",3800
2,"CC1(C)CN(Cc2ccc3cc4c(cc3n2)C[C@]2(C4)C(=O)Nc3ncccc32)[C@@H](Cc2ccccc2)C(=O)N1 [Example 3, (7S)-2-{[(2S)-2-Benzyl-5,5-dimethyl-3-oxopiperazin-1-yl]methyl}-6,8-dihydrospiro[cyclopenta[g]quinoline-7,3′-pyrrolo[2,3-b]pyridin]-2′(1′H)-one]",0.77
3,"CN1C(=O)NC(=O)[C@]12Cc1cc3ccc(CN4C(=O)C(C)(C)Nc5ccccc54)nc3cc1C2 [Example 8, (7R)-2-[(3,3-Dimethyl-2-oxo-3,4-dihydroquinoxalin-1(2H)-yl)methyl]-3′-methyl-6,8-dihydro-2′H,5′H-spiro[cyclopenta[g]quinoline-7,4′-imidazolidine]-2′,5′-dione]",35
4,O=C1Nc2ncccc2C12Cc1cc3ccc(CN4CCc5c([nH]c6ccccc56)C4)nc3cc1C2 (stereo not shown) [Example 45],180
5,CC(C)(C)OC(=O)N1CCN(Cc2ccc3cc4c(cc3n2)C[C@]2(C4)C(=O)Nc3ncccc32)CC1c1ccccc1 (stereo partly shown) [Example 61],58
6,O=C1Nc2ncccc2[C@@]12Cc1cc3ccc(CN4CCNCC4c4ccccc4)nc3cc1C2 (stereo partly shown) [Example 64],6.6
7,O=C1NC2(CCCC2)CN(Cc2ccc3cc4c(cc3n2)C[C@]2(C4)C(=O)Nc3ncccc32)C1c1ccccc1 (stereo partly shown) [Example 69],43
8,O=C1Nc2ncccc2[C@@]12Cc1cc3ccc(CN4CCNCC4)nc3cc1C2 [Example 76],0.73
9,O=C1N[C@H](Cc2ccccc2)CN(Cc2ccc3cc4c(cc3n2)C[C@]2(C4)C(=O)Nc3ncccc32)C1c1ccccc1 (stereo partly shown) [Example 84],0.72
10,O=C1NC2(CCCC2)CN(Cc2ccc3cc4c(cc3n2)C[C@]2(C4)C(=O)Nc3ncccc32)C1Cc1ccccc1 (stereo partly shown) [Example 87],0.34
11,O=C1NC2(CCCC2)CN(Cc2ccc3cc4c(cc3n2)C[C@]2(C4)C(=O)Nc3ncccc32)[C@@H]1Cc1ccccc1 [Example 88],2.6
12,CC1(Cc2ccccc2)C(=O)NC2(CCCC2)CN1Cc1ccc2cc3c(cc2n1)C[C@]1(C3)C(=O)Nc2ncccc21 (stereo partly shown) [Example 95],17
13,O=C1CC2(CCN(Cc3ccc4cc5c(cc4n3)CC3(C5)C(=O)Nc4ncccc43)CC2)Oc2ccccc21 (stereo not shown) [Example 114],15000
